Results as given in the NIST ThermoML archive (doi:10.1021/je800026p).

Test: xn = mol fraction of the nth substance listed
Conditions: 101 kPa, Liquid; for speed of sound: Sing-around technique in a fixed-path interferometer; for mass density: Vibrating tube method

CCCCCCOCCOCCO [2-(2-hexyloxyethoxy)ethanol] + CCCCN
Conditions	mass density, 288.15 K [kg/m3]	mass density, 293.15 K [kg/m3]	mass density, 298.15 K [kg/m3]	mass density, 303.15 K [kg/m3]	mass density, 308.15 K [kg/m3]	speed of sound, 288.15 K [m/s]	speed of sound, 293.15 K [m/s]	speed of sound, 298.15 K [m/s]	speed of sound, 303.15 K [m/s]	speed of sound, 308.15 K [m/s]
x1 = 0.1165	788.964	784.34	779.774	775.186	770.602	1323	1302.2	1281.5	1260.8	1240.3
x1 = 0.1587	803.568	799.044	794.52	790	785.486	1332.3	1312	1291.7	1271.5	1251.3
x1 = 0.1943	814.988	810.552	806.078	801.606	797.118	1339.5	1319.7	1299.7	1279.8	1259.8
x1 = 0.2403	828.571	824.179	819.765	815.333	810.88	1348.2	1328.7	1309.1	1289.6	1270
x1 = 0.2974	843.631	839.297	834.939	830.566	826.173	1357.8	1338.8	1319.6	1300.6	1281.3
x1 = 0.3403	853.769	849.458	845.129	840.783	836.421	1364.2	1345.5	1326.6	1307.9	1288.9
x1 = 0.3916	864.666	860.386	856.092	851.78	847.457	1371.1	1352.6	1334.1	1315.7	1297.1
x1 = 0.4568	876.866	872.668	868.407	864.132	859.843	1378.6	1360.4	1342.2	1324.2	1306
x1 = 0.5105	885.772	881.607	877.388	873.158	868.903	1383.9	1365.9	1348	1330.1	1312.3
x1 = 0.5658	894.125	889.991	885.768	881.571	877.355	1388.5	1370.7	1353	1335.3	1317.8
x1 = 0.6081	900.031	895.896	891.728	887.547	883.355	1391.5	1373.9	1356.3	1338.8	1321.2
x1 = 0.6559	906.287	902.162	898.025	893.876	889.716	1394.5	1376.9	1359.5	1342.1	1324.9
x1 = 0.6977	911.396	907.303	903.194	899.074	894.942	1396.7	1379.2	1361.8	1344.5	1327.5
x1 = 0.7402	916.322	912.248	908.162	904.067	899.964	1398.6	1381.2	1363.9	1346.7	1329.8
x1 = 0.8029	923	918.949	914.893	910.805	906.755	1400.8	1383.5	1366.4	1349.3	1332.5
x1 = 0.8675	928.954	924.929	920.91	916.89	912.833	1402.5	1385.4	1368.3	1351.4	1334.6
x1 = 0.9082	932.126	928.121	924.113	920.095	916.07	1403.4	1386.3	1369.3	1352.4	1335.7
x1 = 0.9635	935.472	931.477	927.494	923.492	919.484	1404.3	1387.4	1370.4	1353.6	1336.8

CCCCCCOCCOCCO [2-(2-hexyloxyethoxy)ethanol] + CCCCNCCCC
Conditions	mass density, 288.15 K [kg/m3]	mass density, 293.15 K [kg/m3]	mass density, 298.15 K [kg/m3]	mass density, 303.15 K [kg/m3]	mass density, 308.15 K [kg/m3]	speed of sound, 288.15 K [m/s]	speed of sound, 293.15 K [m/s]	speed of sound, 298.15 K [m/s]	speed of sound, 303.15 K [m/s]	speed of sound, 308.15 K [m/s]
x1 = 0.0974	787.886	783.751	779.614	775.187	771.079	1301.4	1282.3	1262.9	1243.7	1225.3
x1 = 0.1441	798.114	793.988	789.859	785.667	781.545	1308.1	1289.2	1270.5	1251	1232.2
x1 = 0.1908	808.103	804	799.885	795.785	791.662	1314.8	1296	1277.8	1258.2	1239.2
x1 = 0.253	820.984	816.934	812.825	808.731	804.6	1323.5	1304.8	1287	1267.7	1248.7
x1 = 0.2986	830.092	826.059	821.948	817.838	813.671	1329.8	1311.2	1293.6	1274.5	1255.5
x1 = 0.3606	842	837.97	833.834	829.692	825.52	1338	1319.7	1302.1	1283.4	1264.8
x1 = 0.4018	849.578	845.585	841.423	837.274	833.078	1343.4	1325.2	1307.6	1289.3	1270.9
x1 = 0.4584	859.635	855.602	851.46	847.291	843.095	1350.4	1332.6	1315	1297	1279.1
x1 = 0.5091	868.247	864.218	860.074	855.914	851.724	1356.7	1339	1321.3	1303.8	1286.2
x1 = 0.5435	873.936	869.891	865.751	861.602	857.401	1360.8	1343.2	1325.7	1308.2	1290.8
x1 = 0.587	880.891	876.847	872.72	868.58	864.406	1365.8	1348.4	1330.9	1313.6	1296.5
x1 = 0.6097	884.459	880.409	876.278	872.165	867.972	1368.4	1351	1333.6	1316.4	1299.4
x1 = 0.6572	891.716	887.648	883.547	879.461	875.302	1373.6	1356.4	1339	1322	1305
x1 = 0.7023	898.412	894.343	890.259	886.201	882.052	1378.3	1361.3	1344.1	1327	1310.1
x1 = 0.7451	904.586	900.53	896.459	892.397	888.281	1382.7	1365.7	1348.6	1331.6	1314.5
x1 = 0.8144	914.195	910.151	906.103	902.062	897.98	1389.4	1372.4	1355.5	1338.5	1320.9
x1 = 0.8675	921.188	917.168	913.137	909.095	905.045	1394.2	1377.2	1360.3	1343.3	1325
x1 = 0.9083	926.329	922.317	918.3	914.27	910.231	1397.7	1380.6	1363.7	1346.8	1327.7
x1 = 0.9414	930.322	926.329	922.323	918.281	914.269	1400.4	1383.2	1366.2	1349.3	1329.5
